Source: patent US10265275B2, “Phenolic coatings and methods of making and using same” (Northwestern University, priority 2013, dated 2019)
Like-named read-outs stand apart in the source and are kept apart here.

Test: Potentiometric titration, first pKa
Assay type: physicochemical
Experimental: In order to investigate the relationship between coating pH and deprotonation, coating precursor molecules were studied via potentiometric titrations. A solution of tannic acid was made by dissolving ˜1 mg in 2 mL of 100 mM KCl in a glass test tube to perform the titration. The TA and KOH solutions were degassed by aggressively sparging argon for no less than 30 min. Base was titrated in 1.0 μL increments, and the total amount added was 250 μL. If oxygen is purged correctly, the phenolic solution should display little or no change in color throughout the titration. The first pKa was calculated by initially plotting the volume of base added versus pH. The first derivative of this curve was then plotted as a function of pH, and the pKa was calculated by determining the pH associated with any local maxima.

[1] = aqueous 100 mM KCl solution, 100 mM KCl, degassed, KOH titration, read-out: First pKa
[2] = first pKa minus optimal coating pH

| Compound | pKa − pH | pKa [1] | First pKa (100 mM KCl, degassed, KOH titration) | pKa − pH [2] | pKa |
| --- | --- | --- | --- | --- | --- |
| Oc1cccc(O)c1O [PG, 1,2,3-trihydroxybenzene] | 2.3 | 9.3 |  |  |  |
| epigallocatechin-3-gallate [EGCG] |  |  | 8.1 | 1.1 |  |
| Oc1ccccc1O [Catechol, catechol] |  | 9.5 |  | 1.5 |  |
| Oc1ccc(O)c(O)c1 [HHQ, hydroxyhydroquinone] | 3.1 |  |  |  | 9.1 |
| O=C(OC[C@H]1O[C@@H](OC(=O)c2cc(O)c(O)c(OC(=O)c3cc(O)c(O)c(O)c3)c2)[C@H](OC(=O)c2cc(O)c(O)c(OC(=O)c3cc(O)c(O)c(O)c3)c2)[C@@H](OC(=O)c2cc(O)c(O)c(OC(=O)c3cc(O)c(O)c(O)c3)c2)[C@@H]1OC(=O)c1cc(O)c(O)c(OC(=O)c2cc(O)c(O)c(O)c2)c1)c1cc(O)c(O)c(OC(=O)c2cc(O)c(O)c(O)c2)c1 [Tannic acid, tannic acid] | 0.7 |  |  |  | 7.7 |
